Literature values, collected in patent EP0884997B1, “COMPOSITIONS CONTAINING AN ANTIFUNGAL AND A SULFUR COMPOUND” (JANSSEN PHARMACEUTICA N.V., priority 1996, dated 1997).

Details: prior art medicated shampoos, dandruff patients

S=[Se]=S [selenium sulfide]
number of patients not responding to particular medicated shampoo: up to 40%

CC(=O)N1CCN(c2ccc(OCC3COC(Cn4ccnc4)(c4ccc(Cl)cc4Cl)O3)cc2)CC1 (centres unmarked) [ketoconazole]
number of patients not responding to particular medicated shampoo: up to 30%
